According to PMC7618104, “The GLP-1 analogue, exendin-4, improves bone material properties and strength through a central relay in ovariectomized mice” (American journal of physiology. Endocrinology and metabolism, 2025):

What was measured:
[1] = system: animal models of bone fragility; conditions: subcutaneous, OVX model; cited from earlier work
Description: These observations formed the basis for investigating the potential utility of a GLP-1r agonist for the management of bone fragility. Ex-4 has already been administered subcutaneously in preclinical models of bone fragility, including the OVX model used in the present study. Previous studies have reported positive effects of Ex-4 that increased bone mineral density, trabecular microstructure and circulating calcitonin leve ...

[2] = system: ovariectomized BALB/c mice; assay: Plasma levels of calcitonin and bone remodeling markers (CTx-I, P1NP); format: in vivo, mouse (BALB/cJRj, female); conditions: 28 days, n=8; for Calcitonin (plasma) / P1NP (plasma) / CTx-I (plasma): mean ± SD
Experimental: (§1) Eight animals were randomly assigned to each group.
(§2) All animals received intraperitoneal administration of calcein green (10 mg/kg) 10 days and 2 days before sacrifice. Animals were housed in social groups and maintained in a 12 h:12 h light/dark cycle. They had free access to water and food. At necropsy, blood was collected by intracardiac aspiration into EDTA-treated tubes. Blood samples were centrifuged at 13,000 g for 15 min, aliquoted and stored at -80°C until plasma levels of exendin-4 (#EK-070-94, Phoenix pharmaceuticals, Burlingame, CA) and calcitonin (NBP3-06734, Bio-Techne Ltd, Abingdon, UK) were measured according to the manufacturer’s protocol. Plasma levels of the bone remodeling markers C-terminal telopeptide of collagen type I (CTx-I – RatLaps, Immunodiagnostic Systems Ltd, Boldon, UK) and N-terminal propeptide of type I collagen (P1NP - Rat/mouse P1NP, Immunodiagnostic Systems Ltd) were measured according to the manufacturers’ recommendation. Right femurs were wrapped in saline-soaked gauze and frozen at -20°C until use. Right tibiae were fixed in ethanol-based fixative and stored at 4°C until use. No specific inclusion or exclusion criteria were applied for animal selection. […] Additionally, correct implantation of the cerebral perfusion cannulas for icv-administered animals was verified at necropsy. All animals meeting these criteria were included in the study.

[3] = system: splenocytes isolated from BALB/c ovariectomized (OVX) mice; assay: Osteoclast differentiation assay (TRAP staining); format: cell-based, mouse (BALB/cJRj); conditions: 10 nM Exendin-4, M-CSF + RANKL, 7 days
Experimental: To investigate the potential effect of Exendin-4 (Ex-4) on osteoclast differentiation, we used splenocytes isolated from BALB/c ovariectomized (OVX) mice (BALB/cJRj; Janvier Labs, Saint-Berthevin, France). Mice were ovariectomized at 12 weeks of age, and splenocytes were isolated 4 weeks post-ovariectomy. The splenocytes were cultured in osteoclast differentiation medium (α-MEM supplemented with 10% FBS, 100 U/mL penicillin/streptomycin, 50 ng/mL macrophage colony-stimulating factor (M-CSF, Bio-Techne, Noyal-Chatillon-sur-Seiche, France), and 30 ng/mL receptor activator of NF-κB ligand (RANKL, Bio-Techne) in the presence or absence of 10 nM Exendin-4. D-Ala2-GIP at a concentration of 10 nM was used as positive controls, as previously reported ([39]). Cells were cultured for 7 days, with media changes every 2 days. Osteoclast differentiation was evaluated by TRAP staining, as previously described ([39]).
Supplementary Figure S4 – Effect of Exendin-4 on osteoclast differentiation in vitro. Splenocytes were isolated from BALB/c ovariectomized (OVX) mice at 12 weeks of age, 4 weeks post-ovariectomy, and cultured in osteoclast differentiation medium containing M-CSF and RANKL, with or without 10 nM Exendin-4. Cells were cultured for 7 days, and osteoclast differentiation was assessed by TRAP staining.
D-Ala2-GIP was used at 10 nM and served as positive controls. […]

[4] = system: ovariectomized BALB/c mice; assay: Bone histomorphometry at the proximal tibia metaphysis; format: in vivo, mouse (BALB/cJRj, female); conditions: 28 days, n=8; for BFR/BS / MAR / MS/BS / O.Th / OS/BS / N.Oc/B.Pm / Oc.S/BS: mean ± SD; for N.Oc/B.Pm / Oc.S/BS: p<0.001 vs. OVX+Vehicle
Experimental: as §1, §2
After microCT, right tibias were embedded undecalcified in polymethylmethacrylate (pMMA) at 4°C as previously reported ([32]). Seven micron-thick sections were made with a sledge microtome (Polycut S, Leica, Nanterre, France) prior to histoenzymatic detection of TRAP or Goldner trichrome staining. Dynamic histomorphometry was perfomed after counterstaining the bone matrix with calcein blue. All histomorphometrical parameters were measured with an in-house written application developed in Matlab R2023b (The Mathworks, Natick, CA, RRID:SCR_001622) according to guidelines and nomenclature proposed by the American Society for Bone and Mineral Research ([33]).

[5] = system: ovariectomized BALB/c mice; assay: microCT trabecular microstructure, proximal tibia metaphysis; format: in vivo, mouse (BALB/cJRj, female); conditions: 28 days, vs OVX+vehicle, n=8
Experimental: as §1, §2
MicroCT analyses were performed at the proximal metaphysis of the right tibia and at the mid-diaphysis of the right femur with a Bruker 1272 microtomograph operated at 70 kV, 140 μA, 1000 ms integration time and imaging in ethanol 70. The isotropic pixel size was fixed at 4 μm, the rotation step at 0.25° and exposure was performed with a 0.5 mm aluminum filter. Hydroxyapatite phantoms (250 mg/cm^3 and 750 mg/cm^3) were used for calibration. Reconstruction of 2D projections was done with the NRecon software (Version 1.6.10.2). For tibial analysis, a trabecular volume of interest was located 0.5 mm below the growth plate at the proximal end and extended 2 mm down. Trabecular bone was separated from cortical bone with an automatic contouring script in CTan software (Version 1.20.8.0). The right femur was used for cortical microarchitecture. The region analyzed (0.5 mm) was centered at the midpoint between the third trochanter and the distal growth plate. Bone was segmented from soft tissue using global thresholding set at 300 mg/cm^3 for trabecular bone and 700 mg/cm^3 for cortical bone. All histomorphometrical parameters were measured with the CTan software according to guidelines and nomenclature proposed by the American Society for Bone and Mineral Research ([31]).

[6] = s.c. Ex-4 ~700 pmol/day, vs OVX+vehicle, p<0.001
[7] = icv Ex-4 70 pmol/day, vs OVX+vehicle, p<0.001

Substance: exendin-4 [Ex-4]
- bone mineral density, trabecular microstructure, calcitonin, osteoclast parameters, bone strength [1]: increased bone mineral density, trabecular microstructure and circulating calcitonin levels and reduced osteoclast parameters, resulting in greater bone strength
- Calcitonin (plasma) ([2]; OVX + Ex-4, icv 70 pmol/day): 47 ± 10 pg/mL
- P1NP (plasma) ([2]; OVX + Ex-4, icv 70 pmol/day): 28.0 ± 2.2 ng/mL
- CTx-I (plasma) ([2]; OVX + Ex-4, icv 70 pmol/day, p<0.01 vs. OVX+Vehicle): 8.5 ± 1.7 ng/mL
- P1NP (plasma) ([2]; OVX + Ex-4, s.c. ~700 pmol/day): 25.2 ± 4.0 ng/mL
- Calcitonin (plasma) ([2]; OVX + Ex-4, s.c. ~700 pmol/day, p<0.001 vs. OVX+Vehicle): 111 ± 15 pg/mL
- CTx-I (plasma) ([2]; OVX + Ex-4, s.c. ~700 pmol/day, p<0.05 vs. OVX+Vehicle): 11.7 ± 2.0 ng/mL
- circulating calcitonin levels ([2]; icv Ex-4 70 pmol/day, OVX): no effects on circulating calcitonin levels
- change in plasma CTX-I ([2]; icv Ex-4 70 pmol/day, vs OVX+vehicle, p=0.005): -38%
- increase in plasma circulating calcitonin [2, 6]: 152%
- change in plasma CTX-I ([2]; s.c. Ex-4 ~700 pmol/day, vs OVX+vehicle, p=0.012): -20%
- osteoclast differentiation [3]: No significant differences in osteoclast differentiation
- BFR/BS ([4]; OVX + Ex-4, icv 70 pmol/day): 0.282 ± 0.065 μm^3/μm^2/day
- MAR ([4]; OVX + Ex-4, icv 70 pmol/day): 2.17 ± 0.41 μm/day
- MS/BS ([4]; OVX + Ex-4, icv 70 pmol/day): 12.9 ± 1.2%
- O.Th ([4]; OVX + Ex-4, icv 70 pmol/day): 4.7 ± 0.7 μm
- OS/BS ([4]; OVX + Ex-4, icv 70 pmol/day): 3.0 ± 2.2%
- N.Oc/B.Pm ([4]; OVX + Ex-4, icv 70 pmol/day): 1.01 ± 0.27 ^*** mm^-1
- Oc.S/BS ([4]; OVX + Ex-4, icv 70 pmol/day): 0.96 ± 0.27 %
- BFR/BS ([4]; OVX + Ex-4, s.c. ~700 pmol/day): 0.301 ± 0.059 μm^3/μm^2/day
- MAR ([4]; OVX + Ex-4, s.c. ~700 pmol/day): 2.30 ± 0.35 μm/day
- MS/BS ([4]; OVX + Ex-4, s.c. ~700 pmol/day): 13.0 ± 1.3%
- O.Th ([4]; OVX + Ex-4, s.c. ~700 pmol/day): 4.8 ± 0.8 μm
- OS/BS ([4]; OVX + Ex-4, s.c. ~700 pmol/day): 2.4 ± 1.0%
- N.Oc/B.Pm ([4]; OVX + Ex-4, s.c. ~700 pmol/day): 1.11 ± 0.26
- Oc.S/BS ([4]; OVX + Ex-4, s.c. ~700 pmol/day): 0.99 ± 0.28 %
- change in number of osteoclasts [4, 7]: -51%
- change in osteoclast surfaces [4, 7]: -45%
- change in number of osteoclasts and osteoclast surfaces [4, 6]: -41%
- change in Tb.N ([5]; icv Ex-4 70 pmol/day, p<0.001): 4%
- change in BV/TV ([5]; icv Ex-4 70 pmol/day, p=0.005): +6%
- increase in Tb.N ([5]; s.c. Ex-4 ~700 pmol/day, p<0.001): 6%
- increase in BV/TV ([5]; s.c. Ex-4 ~700 pmol/day, p=0.002): 11%
